We go through 85 molecules from a melting point compilation (Tetko et al.; mined from patent text by program, amines drawn as free bases though some values may be those of a salt).

A value given as a limit tells only on which side of the number the result lay.

As usually defined, the melting point is the temperature of the solid-liquid transition. The molecule `CCOC(=O)n1c(C(=O)c2ccc(F)cc2)c(NC(C)=O)c2ccc(Cl)cc21` showed a melting point of 196 to 198 °C.

With `COc1ccc(N2CNC(=O)C23CCN(CCCN(c2ccccc2)c2ccccc2)CC3)cc1`, the melting point lay in the range of 156 to 158 °C.

The molecule `CCOC(=O)c1cn(C2CN(C(c3ccccc3)c3ccccc3)C2)c2cc(F)c(F)cc2c1=O` displayed a melting point of 196 to 201 °C.

The molecule `Clc1ccc(Cn2cnc3ccc(Cl)nc32)c(Cl)c1` displayed a melting point of 149 to 150 °C.

On to `CC(CC#N)N1C(=O)C2(OCCCO2)c2cc(Br)ccc21` (stereo not given), for which the melting point was 112 to 113 °C.

`CC(C)(Cc1cc2nc(Cl)ccc2n1S(=O)(=O)c1ccccc1)C(=O)O` displayed a melting point of 208 to 211 °C.

With `COc1ccc(-c2cccc(COCCc3cccc(NC(N)=O)c3)c2)cc1`, the melting point lay within 87 to 89 °C.

Take `O=C(Nc1ccc(S(=O)(=O)c2ccc([N+](=O)[O-])cc2)cc1)N[C@@H](Cc1ccc(NC(=O)c2c(Cl)cccc2Cl)cc1)C(=O)O`: the melting point was found to be 223 °C.

With `O=C(c1cccnc1)C(O)c1ccccc1Cl` (stereo not given), the melting point stood at 92 °C.

For the molecule `CCc1nn(-c2ccc(C(=N)N)cc2)c(=O)n1-c1ccc(CCC(=O)O)cc1`, the melting point was more than 250 °C.

`COC(=O)C(C)NC(=O)Cc1cc(C)c(C(=O)c2ccc(Cl)cc2)n1C` (stereo not given) yielded a melting point of 163 to 165 °C.

The molecule `O=C(NC/C=C/c1ccccc1)c1ccc(OC(F)(F)F)cc1` returned a melting point of 136 °C.

`O=[N+]([O-])c1cc(Br)ccc1Nc1cccc(-n2ccnc2)n1` gave a melting point of 194 to 195 °C.

For `COc1ccc(CNc2nn(CC(=O)O)c(=O)c3ccc(C#N)cc23)cc1Cl`, the melting point is 173 to 175 °C.

`CN1CCC(c2c[nH]c3ccc(NS(=O)(=O)c4cccc5ccccc45)cc23)CC1` registered a melting point of 254 to 256 °C.

As to `CCCCc1oc2ccccc2c1C(=O)NCc1ccc2c(-c3ccc(OC)cc3)c(OC(Cc3ccccc3)C(=O)OC)ccc2c1` (stereo not given), the melting point lay in the range of 103 to 105 °C.

`COc1cc(-c2c(C)c3cc(O)ccc3n2Cc2ccc(OCCN3CCCCC3)cc2)ccc1O` came in with a melting point of 161 to 163 °C.

Molecule `c1ccc2c(c1)CCN(c1ccncc1)C2` had a melting point of 95 to 96 °C.

`CCCN(C(N)=S)c1ccc(Cl)cc1Cl`: the melting point worked out at 121 °C.

On to `NC(=NN=Cc1c(Cl)cccc1Cl)Nc1c(Cl)cccc1Cl`, for which the melting point lay within 230 to 231 °C.

In the case of `CCOc1ccc(C(=O)CCC(=O)Nc2cn(Cc3ccccc3)nc2-c2ccccc2)cc1`, the melting point was 138 to 141 °C.

As for `CCc1noc(-c2ncc3[nH]c4ccccc4c3n2)n1`, the melting point is 250 to 257 °C.

`COc1cc2c(cc1OC)CCC=C2` showed a melting point of 90.5 to 91 °C.

`Cc1cc(-n2ccnc2)c2cccc(OCc3c(Cl)ccc(S(=O)(=O)N4CCC[C@H]4C(=O)NCC4CCN(Cc5cccnc5)CC4)c3Cl)c2n1`: the melting point was 107 °C.

Turning to `CC(Oc1ccc(Oc2ccc(Cl)cc2Cl)cc1)C(=O)N1CCCO1` (stereo not given), the melting point was 115 to 118 °C.

`Nc1c(Br)cccc1CS(=O)(=O)c1ccccc1`: the melting point was 174 to 177 °C.

For `CN1CCN(CCC/C=C/c2ccc3c(Nc4ccc(Sc5nccn5C)c(Cl)c4)c(C#N)cnc3c2)CC1`, the melting point lay in the range of 219 to 227 °C.

Take `CC1(C)CC(N)CC(C)(C)N1Cc1ccccc1`: the melting point was 73 to 75 °C.

Take `N#Cc1nn(-c2c(Cl)cc(-c3ccc(C(F)(F)F)cc3)cc2Cl)c(N)c1S(=O)(=O)C(F)(F)F`: the melting point fell in the range of 197 to 202 °C.

Consider `O=C1CCC(N2Cc3c(OCc4ccc5ccccc5n4)cccc3C2=O)C(=O)N1` (stereo not given), for which the melting point lay in the range of 269 to 271 °C.

For the molecule `CC(C)(Oc1ccc(CNc2ccc(Cl)cc2)cc1)C(=O)O`, the melting point was 155 to 158 °C.

Molecule `COc1ccc([N+](=O)[O-])c(NCCO)n1` displayed a melting point of 121 to 122 °C.

Take `CCCCCN(CCC12CC3CC(CC(C3)C1)C2)C(=O)NCC(CC)Cc1ccncc1` (stereo not given): the melting point fell in the range of 72 to 77 °C.

`CC(C)(C)OC(=O)NC1CN(c2c(F)cc3c(=O)c(C(=O)O)cn(C4CC4)c3c2Cl)CC12CC2` (stereo not given) showed a melting point of 205 to 207 °C.

On to `O=C1c2ccccc2C(=O)c2c1c(Oc1ccc(CCCO)cc1)c1ccccc1c2Oc1ccc(CCCO)cc1`, for which the melting point is 218 to 220 °C.

Regarding `C#Cc1cnc2c(NC(=O)c3c(Cl)cccc3Cl)cccc2c1`, the melting point lay within 219 to 220 °C.

In the case of `Cc1ccc2cccc(OCc3c(Cl)ccc(S(=O)(=O)NC(C)(C)C)c3Cl)c2n1`, the melting point came to 191 °C.

For the molecule `OCC1CC(O)C(n2c(NC3CC3)nc3cc(Cl)c(Cl)cc32)C1` (stereo not given), the melting point is 251 to 253 °C.

Regarding `COc1c(C)c2c(c(OS(=O)(=O)c3ccc(C)cc3)c1CC1=C(C)C(=O)CC1)C(=O)OC2`, the melting point lay in the range of 65.4 to 66.8 °C.

With `CN(C)C=CC(=O)c1ccc(OCC(O)CN2CCN(c3cccc(Cl)c3)CC2)cc1` (stereo not given), the melting point is 130 to 133 °C.

As to `Cc1ccc(NC(=O)c2ccc3c(c2)C(=O)N(c2c(Cl)cccc2Cl)C3=O)cc1C`, the melting point lay within 238 to 240 °C.

Molecule `COC(=O)[C@@H]1[C@H](c2ccccc2)CC(=O)N1C` gave a melting point of 100 °C.

With `O=[N+]([O-])c1cc([N+](=O)[O-])c(N2CCSCC2)c(C(F)(F)F)c1`, the melting point was 120 to 121 °C.

The molecule `Cc1nc2ncc(C(=O)NCc3ccc(Cl)cc3)c(O)c2cc1I` had a melting point of 276 to 277 °C.

Turning to `CCCC(CC)(CC)C(=O)O[C@H]1C[C@H](O)C=C2C=C[C@H](C)[C@H](CC[C@@H]3C[C@@H](O)CC(=O)O3)[C@H]21`, the melting point was in the range of 130 to 131 °C.

The molecule `CN(CC(=O)O)c1ccc(C#N)cc1` showed a melting point of 64.5 °C.

For the molecule `CCN(CC)C(=O)COc1cc(N)c(Cl)cc1C(=O)O`, the melting point is 186 to 188 °C.

As to `CCOC(=O)c1sc(NC(=O)c2ccc(C#N)cc2)nc1C`, the melting point fell in the range of 293 to 295 °C.

In the case of `Cc1cc(Cn2cnc3c2CC(C(=O)O)N(C(=O)C(c2ccccc2)c2ccccc2)C3)ccc1N(C)C` (stereo not given), the melting point lay within 72 to 75 °C.

As for `CO[C@]1(c2cc(F)cc(Sc3ccc4c(c3)CC/C4=N\O)c2)CCO[C@@H]1C` (racemic), the melting point was in the range of 136 to 137 °C.

`O=C(O)c1cn(Cc2ccc(OCc3csc(-c4ccccc4)n3)cc2)nc1-c1ccccc1` came in with a melting point of 119 to 120 °C.

`CC(C)[C@H](NCCC#N)C(=O)O`: the melting point lay within 245 to 250 °C.

In turn, `CN1CC2CC(=O)NC3C=CC=C4Cc5ccccc5C(C1)C2N43` (stereo not given) returned a melting point of 165 to 168 °C.

On to `N#CCOc1cc2c(cc1-c1ccc(F)cc1)NC(=O)CC(c1cccc(-n3ccnc3)c1)=N2`, for which the melting point amounted to 164 °C.

`O=C(NCc1ccccc1C(=O)O)c1cccc(/C=C/c2nc(C3CCC3)cs2)c1` gave a melting point of 185 to 187 °C.

In turn, `COc1ccc(-c2[nH]cnc2-c2cc(OC)c(O)c(OC)c2)cc1N` displayed a melting point of 148 to 150 °C.

`COc1ccc(C2NC(=O)C(C)S2)cc1OC` (stereo not given) had a melting point of 151 to 152 °C.

As to `CCn1c(=O)c2c(nc(/C=C/c3cccc(OC(C)=O)c3OC(C)=O)n2C)n(CC)c1=O`, the melting point was in the range of 228 to 230 °C.

In turn, `COc1ccc(Cc2cnc(N)nc2N)cc1OCc1ccccc1` showed a melting point of 210 to 212 °C.

`CC(C)(C)c1ccc(OCC(O)CN(CCO)CCO)cc1` (stereo not given): the melting point was in the range of 45 to 47 °C.

`O=[N+]([O-])c1ccc(-c2nc3c(Cl)ncnc3o2)cc1` gave a melting point of 231 °C.

In turn, `Cc1c(-c2cc(Br)c(O)c(Br)c2)oc2ccc(OP(=O)(O)O)cc2c1=O` came in with a melting point of 258 to 260 °C.

Consider `Nc1ccc(Oc2ccc(C34CC5CC(C3)CC(c3ccc(Oc6ccc(N)c(O)c6)cc3)(C5)C4)cc2)cc1O`, for which the melting point was 166 to 169 °C.

The molecule `OCCN1CCC(Nc2nc3cncnc3n2Cc2ccc(F)cc2)CC1` yielded a melting point of 159 °C.

`CC(C)=CCC1(C(F)(F)F)C(=O)NC(=O)NC1=O` gave a melting point of 150 to 153 °C.

For `CN(C)c1nc(N(C)C)c2ncn(Cc3ccccc3F)c2n1`, the melting point was 127 °C.

On to `COc1ccccc1S(=O)(=O)N(C)c1cccc2cc(C3=NCC(CC(=O)N4CCC(O)CC4)S3)[nH]c12` (stereo not given), for which the melting point is 166 to 167 °C.

Regarding `CCC(=O)c1ccc(SC)cc1`, the melting point was 60 to 61 °C.

Regarding `CCCCNc1cc(C(=O)O)cc(S(N)(=O)=O)c1Nc1ccccc1`, the melting point is 230 to 231 °C.

Molecule `Cc1ccc(-n2cc(C(=O)O)c(=O)c3ccc(-c4ccncc4)cc32)cc1C` yielded a melting point of 301 to 303 °C.

For the molecule `CN1C2CCC1CC(c1c[nH]c3cc(F)ccc13)C2` (stereo not given), the melting point lay in the range of 168 to 169 °C.

Take `CCOC(=O)c1cnn(-c2cccc(S(=O)(=O)N(C)C)n2)c1N`: the melting point was in the range of 197 to 198 °C.

Consider `CC(=O)c1ccc(S)cc1`, for which the melting point is 71 °C.

`Cn1cnc2c(OC3SCC(O)C(O)C3O)cccc21` (stereo not given) registered a melting point of 180 °C.

Molecule `O=C(Nc1ccc(N2CCNCC2)cc1)c1ccccc1-c1ccc(C(F)(F)F)cc1` showed a melting point of 119 to 124 °C.

Regarding `Cc1nc(Sc2ncccc2C(F)(F)F)sc1CC(=O)O`, the melting point was in the range of 195 to 196 °C.

Take `CCOC(=O)Cn1c(-c2ccc([N+](=O)[O-])cc2)nc2cccnc21`: the melting point is 192 to 194 °C.

In turn, `CCOC(=O)c1ccc(I)cc1N` returned a melting point of 51 to 53 °C.

Regarding `O=C1NCCCN1C1CCN(CC[C@H](c2ccc(Cl)c(Cl)c2)[C@@H](O)c2ccnn2-c2ccccc2)CC1` (racemic), the melting point lay within 174 to 176 °C.

In turn, `CC(C)c1nc(CN=[N+]=[N-])n(C)c1Sc1cc(Cl)cc(Cl)c1` had a melting point of 84 to 85 °C.

For `Nc1ccc(C(=O)c2cccnc2)cc1`, the melting point stood at 107 °C.

With `Cc1c(-c2ccccc2)oc2c(OCCN=[N+]=[N-])cccc2c1=O`, the melting point was 119 to 120 °C.

In turn, `COc1ccc(S(=O)(=O)n2ccc3ccnc(-c4ccc(F)cc4)c32)cc1` had a melting point of 136 to 137 °C.

`CN(C)Cc1cccc(OCCCNc2nc(N=Cc3ccncc3)nn2C)c1` registered a melting point of 127 to 128 °C.

As for `COC(=O)CN1C(=O)[C@H](C(C)C)Oc2c(C(C)C)cccc21`, the melting point is 67 to 68 °C.
